The values below come from PMC12156041, “Design, Synthesis and Antiplasmodial Activities of a Library of Fluorine-Based 3-Benzylmenadiones” (Molecules, 2025).

Series [1] has as its system P. berghei (GFP ANKA malaria strain). Description: In vitro efficacy testing with P. berghei, 24 h (species shift assay). Type of series: cell-based. The conditions noted are these: Plasmodium berghei, read-out: IC50 Pb; P. berghei, 24 h assay.
For series [2], the system named is P. falciparum NF54 strain. Description: Serum shift assay, P. falciparum NF54 72 h in 50% human serum. Conditions: for Serum Shift: 50% human serum versus 0.5% Albumax; for IC50: Plasmodium falciparum, NF54, 72 h, read-out: IC50 NF54 72 h, 50% Human Serum.
Series [3] can be described thus: Thermodynamic aqueous solubility (shake-flask, PBS-10% DMSO). Conditions: PBS with 10% DMSO, aqueous with cosolvent or surfactant or cyclodextrin, PBS pH 7.4, 10% DMSO, 20 °C, read-out: Thermodynamic aq. Solubility in PBS-10% DMSO. The series is classed as physicochemical. As to the method: Thermodynamic Aqueous Solubility: The shake-flask method enabled us to determine the apparent thermodynamic solubilities of the DMSO stock solutions of the compounds. […] The mixture was equilibrated at 20 °C for 24 h. After centrifugation, the supernatant was injected into an HPLC column coupled to an LC-MS apparatus (with UV–Vis detection) in order to determine the compound concentration. […] These solutions were also injected in order to calibrate the concentration determination process. […] Measurements were performed in duplicate.

Series [4] is described as follows: Chromatographic Hydrophobicity Index (CHI) by HPLC. Type of series: physicochemical. Conditions: for CHI: Chromatographic Hydrophobicity Index, lipophilicity index; for chromatographic logD: pH 7.4, read-out: log D7.4. As to the method:
Determination of CHI values: Compound lipophilicity influences permeability and propensity to nonspecific binding to plasma proteins. Although precise, the classical “shake flask” method is not always appropriate for the determination of high hydrophobicity, which can be alternatively measured using the Chromatographic Hydrophobicity Index method. This HPLC-based technique leads to rapid and cheap estimates of partition coefficients. […] A measure of 5 μL was injected onto the HPLC (with UV–Vis detection). […] The measurements were performed in duplicate. […] The CHI is approximately equal to the proportion of acetonitrile in the mobile phase when the compound is eluted from the column.

Series [5] has as its system P. falciparum NF54 strain. Description: P. falciparum NF54 [3H]hypoxanthine incorporation assay, 72 h, 0.5% Albumax. Type of series: cell-based. The conditions noted are these: Plasmodium falciparum.
Series [6] has as its system rat myoblast cell line (L6 cells). The conditions noted are these: grey line ref 9; cited from earlier work.
Series [7] concerns P. falciparum NF54 strain. Conditions: grey line ref 9; cited from earlier work.
Series [8] deals with P. falciparum NF54 strain. Description: P. falciparum NF54 24 h assay (species shift assay). The conditions noted are these: Plasmodium falciparum, NF54, read-out: IC50 Pf NF54; 24 h assay. Type of series: cell-based.
The subject of series [9] is P. berghei GFP ANKA malaria strain. Description: Drug assay in vivo in P. berghei-infected mice. Conditions: p.o. 4 × 50 mg/kg; for Parasitized RBC over 100: individual mice; for Parasitized RBC over 100 / Parasitized RBC over 100, Avg. / % of Control / Activity (%): day 4; for % of Control: parasitemia; for Activity (%): reduction of parasitemia versus control.
In a further series the test system is P. falciparum strain Dd2. Set-up: method as in doi:10.1002/ejoc.201600144. The conditions noted are these: multi-resistant P. falciparum strain Dd2 ref 12; cited from earlier work.
The mark [10] stands for this setting: NF54, 72 h, read-out: IC50 NF54 72 h, 0.5% Albumax, Table 5B, 0.5% Albumax.
Where [11] appears, read: NF54, 72 h, read-out: IC50 Pf NF54, 72 h, Table 5A, species shift experiment.

Converted amounts (≈) assume the structure as drawn. “And” between values parts separate entries of the source, which are not always exact repeats. Equal entries are not always repeated. Where two headings read alike, the source gives them in different places.

For orientation: thermodynamic solubility means solubility found after equilibrating the solid with the medium. For the compound `CC1=C(Cc2c(F)c(F)c(F)c(F)c2F)C(=O)c2ccccc2C1=O` [A-b-47], the IC50 in series [1] is 0.265 µM; in series [2] it was 0.324 µM; in series [5] (setting [10]) it was 0.081 µM; in series [5] (setting [11]), 0.091 µM; in series [5] (NF54, as stated in text, read-out: IC50 against P. falciparum NF54), less than 0.1 µM; in [7], 0.06 µM. In addition, in [8], the IC50 was 0.184 µM. Also, the “Serum Shift” value in series [2] is 4.0. Further, in series [3], the solubility (thermodynamic) at 24 h stood at 0.33 ± 0.01 µM (≈ 0.116 µg/mL). Besides, the CHI in series [4] was found to be 115. Besides, in series [4], the chromatographic logD is 4.67. In addition, the Tox/L6 in [6] is reported as 161.0 µM. For the same compound, in [9] (50 mg/kg), the “Parasitized RBC over 100” value was 65.4 and 62.4 and 72.5. For the same compound, the “Avg. Mouse Survival” value in [9] is listed as 4.0 days. For the same compound, in [9], the “Parasitized RBC over 100, Avg.” value turned out to be 66.77. In addition, in series [9], the “% of Control” value is reported as 113.36%. Also, in [9], the “Activity (%)” value is −13.36%.
As for `CC1=C(Cc2ccc(C(F)(F)F)cc2)C(=O)c2cc(F)ccc2C1=O` [Cpnd 6-F-PD], the IC50 in series [1] was 0.17 µM; in the series on P. falciparum strain Dd2, 0.059 ± 0.011 µM; in [2], 0.08 µM; in series [5] (setting [10]), 0.093 µM; in series [5] (setting [11]) it was 0.12 µM; in [7], 0.181 µM. In addition, the IC50 in series [8] was determined as 0.104 µM. In addition, in series [2], the “Serum Shift” value came to 0.9. Besides, in series [3], the thermodynamic solubility at 24 h came to 0.06 ± 0.01 µM (≈ 0.0209 µg/mL). In addition, in series [4], the CHI amounted to 117. For the same compound, the chromatographic logD in series [4] was determined as 4.75. Further, the Tox/L6 in [6] was 44.7 µM. Further, the “Parasitized RBC over 100” value in series [9] (50 mg/kg) was 28.2 and 35.8 and 27.8. In series [9], the “Avg. Mouse Survival” value turned out to be 7.0 days. Further, in [9], the “Parasitized RBC over 100, Avg.” value is recorded as 30.60. For the same compound, in [9], the “% of Control” value was determined as 51.95%. In addition, the “Activity (%)” value in series [9] (50 mg/kg) is reported as 48.05%; in series [9] (listed as 6-fluoro–plasmodione, 50 mg/kg), 50%.
